Columns and labels:
[1] = test system: Septoria tritici isolates containing the G143A in the cytochrome b gene; experiment: Glass house Trial 3: control of leaf blotch on wheat caused by two Septoria tritici isolates containing G143A; assay type: in vivo; settings: % diseased leaf area after about 28 days
Description: The spray solutions were prepared in several steps:
The stock solution was prepared as follows: 1.26 ml of a 1:1 mixture of cyclohexanone and dimethylsulfoxide was added to 8.4 mg of active ingredient. Next, 40.74 ml of a mixture of water, acetone (10%), the emulsifier Wettol (0.1%) and the wetting agent Silwet (0.05%) was added. This stock solution was then further diluted with the described solvent-emulsifier-water mixture to the desired concentrations.
Trial 3: Control of Leaf Blotch on Wheat Caused by Caused by Two Septoria tritici Isolates Containing the G143A in the Cytochrome b Gene for their Cytochrome Bc1 Complex
Wheat plants were grown in pots. These plants were sprayed to run-off with an aqueous suspension, containing the desired concentration of active ingredient. The next day, the treated plants were inoculated with an aqueous suspension of Septoria tritici. After inoculation, the trial plants were covered with a lid and immediately transferred to a chamber with a relative humidity of about 83 to 85% and 19.5 to 20° C. After 4 days the lid was removed. Altogether, the trial plants were cultivated for about 28 days in that greenhouse chamber. The extent of fungal attack on the leaves was then visually assessed as % diseased leaf area.

[2] = test system: Septoria tritici (Qo-inhibitor-resistant, G143A mutant); experiment: Microtiter test, Septoria tritici Qo-inhibitor-resistant G143A mutant (Use Example 1); assay type: cell-based; settings: for IC50: Zymoseptoria tritici, read-out: Resistant Septoria tritici isolate (G143A mutation) (R-IC50)
Description: (§1) The active substances were formulated separately as a stock solution in dimethyl sulfoxide (DMSO) at a concentration of 10 000 ppm.
(§2) Activity against the Septoria blotch pathogen caused by Septoria tritici in the microtiter test
(§3) Fungal strains used: • a) Septoria tritici (Qo-inhibitor sensitive, wild-type) • b) Septoria tritici (Qo-inhibitor-resistant, G143A mutant)
(§4) 100 ml 2% Malt extract in water at pH6.8 were inoculated with microspores from 2 week old cultures grown on 2% malt extract+2% agar in Petri dishes and incubated for 3 days on a rotary shaker at 24° C. und 150 rpm. The culture was harvested, glycerol was added (15% (v/v) and kept frozen at −20° C. in aliquots of 1 ml.
(§5) 1 ml stock suspension was thawed and suspended into 800 ml of 2% malt extract in water at pH 6.8. Compounds were diluted from stock solution in (dimethylsulfoxide) DMSO in 10 steps. The compound solutions were diluted 1/5 with sterile deionized water before use. 5 μl of the compound solutions were transferred into empty microplates. The plates were then filled with 195 μl of the microspore suspension of each strain.
(§6) The antifungal activity was determined by measuring the turbidity of a culture in 96-well microplates in the presence of test compounds. Fungal growth was measured by recording the optical density at 620 nm every 15 h for 150 h. The relative antifungal activity was calculated by comparison of the effect of the test compounds with the effect of a DMSO control and a standard fungicide.
(§7) IC50-values (concentration of test compound resulting in 50% inhibition of fungal growth) were calculated from the resulting dose-response for each compound and strain. The initial concentration of the test compounds and the 10 steps of dilution (1:4 each) allowed IC50-values from 0.001 to 100 μmol/l (μM) to be assessed.

Septoria tritici [3] = experiment: Field Trial 1: efficacy against Septoria tritici on winter wheat (Böhl-Iggelheim); assay type: in vivo, Septoria tritici on winter wheat (cv. Riband); settings: 200 g a.i./ha; for Disease (%) 20 DAA: applied at GS 32 and 21 days later at GS 39, natural infection, 20 days after last treatment; for Disease (%) 33 DAA: applied at GS 32 and GS 39, 33 days after last treatment; for Disease (%) 46 DAA: applied at GS 32 and GS 39, 46 days after last treatment; for control of Qo inhibitor-resistant Septoria tritici isolates, in words: commercial dose level
Description: (§8) Compound I-6 was used as 50 g/l EC formulation. Pyraclostrobin was used as commercial product HEADLINE.
The trial was conducted under field conditions in Böhl-Iggelheim, Rhineland-palatinate, Germany. Seeds of winter wheat (cv. Riband) were planted and grown under standard conditions with adequate supply of water and nutrients. At growing stage GS 32 (Apr. 14, 2011), a first compound treatment (200 g a.i. per ha) was made with a water volume of 400 L/ha, which was repeated 21 days later at growing stage GS 39. No further fungicide treatments were applied. Infection with fungal pathogens (e.g. Septoria tritici) occurred naturally. The evaluation of the disease incidences for Septoria tritici 20, 33 and 46 days after the last treatment (DAA) are shown in table Ill. In the last row, the evaluation of the percentage of Qo inhibitor-resistant Septoria tritici isolates with the G143A mutation after the treatments is given.

[4] = test system: Septoria tritici (Qo-inhibitor sensitive, wild-type); experiment: Microtiter test, Septoria tritici Qo-inhibitor sensitive wild-type (Use Example 1); assay type: cell-based; settings: Zymoseptoria tritici, turbidity at 620 nm, read-out: Sensitive Septoria tritici isolate (wild type) (S-IC50)
Description: as §1, §2, §3, §4, §5, §6, §7

Septoria tritici [5] = experiment: Field Trial 2: efficacy against Septoria tritici on winter wheat (Limburgerhof); assay type: in vivo, Septoria tritici on winter wheat (cv. Riband); settings: 200 g a.i./ha; for Disease (%) 19 DAA: applied at GS 33 and 26 days later at GS 39, natural infection, 19 days after last treatment; for Disease (%) 34 DAA: applied at GS 33 and GS 39, 34 days after last treatment; for antifungal activity against Qo inhibitor-resistant Septoria tritici, in words: commercial dose level
Description: as §8
This trial was conducted under field conditions in Limburgerhof, Rhineland-Palatinate, Germany. Seeds of winter wheat (cv. Riband) were planted and grown under standard conditions with adequate supply of water and nutrients. At growing stage GS 33 (Apr. 8, 2011), a first compound treatment (200 g a.i per ha) was made with a water volume of 400 L/ha, which was repeated 26 days later at growing stage GS 39. No further fungicide treatments were applied. Infection with fungal pathogens (e.g. Septoria tritici) occurred naturally. The evaluation of the disease incidences for Septoria tritici 19 and 34 days after the last treatment (DAA) are shown in Table IV. In the last row, the evaluation of the percentage of Qo inhibitor-resistant Septoria tritici isolates with the G143A mutation after the treatments is given.

[6] = Resistant Septoria tritici isolate 1 (G143A mutation), 12.5 ppm
[7] = Resistant Septoria tritici isolate 1 (G143A mutation), 25 ppm
[8] = Resistant Septoria tritici isolate 1 (G143A mutation), 50 ppm
[9] = Resistant Septoria tritici isolate 1 (G143A mutation), 100 ppm
[10] = Resistant Septoria tritici isolate 1 (G143A mutation), 200 ppm
[11] = Resistant Septoria tritici isolate 2 (G143A mutation), 12.5 ppm
[12] = Resistant Septoria tritici isolate 2 (G143A mutation), 25 ppm
[13] = Resistant Septoria tritici isolate 2 (G143A mutation), 50 ppm
[14] = Resistant Septoria tritici isolate 2 (G143A mutation), 100 ppm
[15] = Resistant Septoria tritici isolate 2 (G143A mutation), 200 ppm

SMILES: CNC(=O)C(=N/OC)/C(C)=C\COc1ccn(-c2ccc(Cl)cc2)n1 [Compound I-6, (Z)-5-[1-(4-Chloro-phenyl)-1H-pyrazol-3-yloxy]-2-[(E)-methoxyimino]-3-methyl-pent-3-enic acid methyl amide]
- Disease level (%) [1, 6]: 50%
- Disease level (%) [1, 7]: 10%
- Disease level (%) [1, 8]: 3%
- Disease level (%) [1, 9]: 3%
- Disease level (%) [1, 10]: 1%
- Disease level (%) [1, 11]: 20%
- Disease level (%) [1, 12]: 15%
- Disease level (%) [1, 13]: 3%
- Disease level (%) [1, 14]: 3%
- Disease level (%) [1, 15]: 0%
- IC50 [2]: 8.3 µM
- Resistance factor RF = R-IC50/S-IC50 [2]: 24
- Disease (%) 20 DAA (Septoria tritici [3]): 1%
- Disease (%) 33 DAA (Septoria tritici [3]): 6%
- Disease (%) 46 DAA (Septoria tritici [3]): 36%
- control of Qo inhibitor-resistant Septoria tritici isolates, in words (Septoria tritici [3]): capable to control
- IC50 [4]: 0.34 µM
- Disease (%) 19 DAA (Septoria tritici [5]): 3%
- Disease (%) 34 DAA (Septoria tritici [5]): 12%
- antifungal activity against Qo inhibitor-resistant Septoria tritici, in words (Septoria tritici [5]): capable to reduce the infection

SMILES: COC(=O)N(OC)c1ccccc1COc1ccn(-c2ccc(Cl)cc2)n1 [Pyraclostrobin, reference compound]
- Disease level (%) [1, 6]: 100%
- Disease level (%) [1, 7]: 100%
- Disease level (%) [1, 8]: 100%
- Disease level (%) [1, 9]: 90%
- Disease level (%) [1, 10]: 30%
- Disease level (%) [1, 11]: 60%
- Disease level (%) [1, 12]: 60%
- Disease level (%) [1, 13]: 40%
- Disease level (%) [1, 14]: 25%
- Disease level (%) [1, 15]: 15%
- IC50 [2]: 3.4 µM
- Resistance factor RF = R-IC50/S-IC50 [2]: 2882
- Disease (%) 20 DAA (Septoria tritici [3]): 8%
- Disease (%) 33 DAA (Septoria tritici [3]): 32%
- Disease (%) 46 DAA (Septoria tritici [3]): 93%
- control of Qo inhibitor-resistant Septoria tritici isolates, in words (Septoria tritici [3]): insufficient control level
- IC50 [4]: 0.0012 µM
- Disease (%) 19 DAA (Septoria tritici [5]): 5%
- Disease (%) 34 DAA (Septoria tritici [5]): 28%
- antifungal activity against Qo inhibitor-resistant Septoria tritici, in words (Septoria tritici [5]): only slightly above the untreated control
